Source: US9302999B2, “Substituted triazoles as herbicides” (E. I. DU PONT DE NEMOURS AND COMPANY, priority 2012, dated 2016)
Read-outs that look alike come from different tables or passages of the source.

How the values were obtained:
Format in all cases: in vivo
[1] = test system: bromegrass, downy (downy bromegrass, Bromus tectorum); assay: Test C pre-/postemergence: bromegrass, downy; conditions: Postemergence
Text: (§1) Seeds of plant species selected from blackgrass (Alopecurus myosuroides), bromegrass, downy (downy bromegrass, Bromus tectorum), foxtail, green (green foxtail, Setaria viridis), ryegrass, Italian (Italian ryegrass, Lolium multiflorum), winter wheat (Triticum aestivum), wild oat (Avena fatua), galium (catchweed bedstraw, Galium aparine), bermudagrass (Cynodon dactylon), surinam grass (Brachiaria decumbens), cocklebur (common cocklebur, Xanthium strumarium), corn (Zea mays), large crabgrass (Digitaria sanguinalis), woolly cupgrass (Eriochloa villosa), foxtail, giant (giant foxtail, Setaria faberii), goosegrass (Eleusine indica), johnsongrass (Sorghum halepense), kochia (Kochia scoparia), lambsquarters (Chenopodium album), morningglory (Ipomoea coccinea), nightshade (eastern black nightshade, Solanum ptycanthum), nutsedge, yellow (yellow nutsedge, Cyperus esculentus), pigweed (Amaranthus retroflexus), ragweed (common ragweed, Ambrosia elation), soybean (Glycine max), common (oilseed) sunflower (Helianthus annuus), Russian thistle (Salsola kali) and velvetleaf (Abutilon theophrasti) were planted into a blend of loam soil and sand and treated preemergence with test chemicals formulated in a non-phytotoxic solvent mixture which included a surfactant.
(§2) At the same time, plants selected from these crop and weed species and also barley (winter barley, Hordeum vulgare), canarygrass (Phalaris minor), chickweed (common chickweed, Stellaria media) windgrass (Apera spica-venti) and deadnettle (henbit deadnettle, Lamium amplexicaule) were planted in pots containing Redi-Earth® planting medium (Scotts Company, 14111 Scottslawn Road, Marysville, Ohio 43041) comprising spaghnum peat moss, vermiculite, wetting agent and starter nutrients and treated with postemergence applications of test chemicals formulated in the same manner. Plants ranged in height from 2 to 18 cm (1- to 4-leaf stage) for postemergence treatments.
(§3) Treated plants and controls were maintained in a greenhouse for 13 to 15 days, after which time all species were compared to controls and visually evaluated. Plant response ratings, summarized in Table C, are based on a scale of 0 to 100 where 0 is no effect and 100 is complete control. A dash (-) response means no test result.

[2] = test system: surinam grass (Brachiaria decumbens); assay: Test C pre-/postemergence: surinam grass; conditions: Postemergence
Text: as §1, §2, §3

[3] = test system: barley (winter barley, Hordeum vulgare); assay: Test C postemergence: barley
Text: as §2, §3

[4] = test system: deadnettle (henbit deadnettle, Lamium amplexicaule); assay: Test C postemergence: deadnettle
Text: as §2, §3

[5] = test system: ryegrass, Italian (Italian ryegrass, Lolium multiflorum); assay: Test D pre-/postemergence: ryegrass, Italian; conditions: Postemergence
Text: (§4) Seeds of plant species selected from bluegrass (annual bluegrass, Poa annua), blackgrass (Alopecurus myosuroides), canarygrass (Phalaris minor), chickweed (common chickweed, Stellaria media), galium (catchweed bedstraw, Galium aparine), bromegrass, downy (downy bromegrass, Bromus tectorum), field poppy (Papaver rhoeas), field violet (Viola arvensis), foxtail, green (green foxtail, Setaria viridis), deadnettle (henbit deadnettle, Lamium amplexicaule), ryegrass, Italian (Italian ryegrass, Lolium multiflorum), kochia (Kochia scoparia), lambsquarters (Chenopodium album), oilseed rape (Brassica napus), pigweed (Amaranthus retroflexus), Russian thistle (Salsola iberica), chamomile (scentless chamomile, Matricaria inodora), speedwell (bird's-eye speedwell, Veronica persica), barley, spring (spring barley, Hordeum vulgare), wheat, spring (spring wheat, Triticum aestivum), buckwheat, wild (wild buckwheat, Polygonum convolvulus), mustard, wild (wild mustard, Sinapis arvensis), oat, wild (wild oat, Avena fatua), radish, wild (wild radish, Raphanus raphanistrum), windgrass (Apera spica-venti), barley, winter (winter barley, Hordeum vulgare), and wheat, winter (winter wheat, Triticum aestivum) were planted into a silt loam soil and treated preemergence with test chemicals formulated in a non-phytotoxic solvent mixture which included a surfactant. At the same time, these same crop and weed species were planted in pots containing the planting medium comprising spaghnum peat moss, vermiculite, wetting agent and starter nutrients and treated with postemergence applications of the test chemicals formulated in the same manner. Plants ranged in height from 2 to 18 cm (1- to 4-leaf stage).
(§5) Treated plants and controls were maintained in a controlled growth environment for 14 to 21 days after which time all species were compared to controls and visually evaluated. Plant response ratings, summarized in Table D, are based on a scale of 0 to 100 where 0 is no effect and 100 is complete control. A dash (-) response means no test result.

[6] = test system: chamomile (scentless chamomile, Matricaria inodora); assay: Test D pre-/postemergence: chamomile; conditions: Postemergence
Text: as §4, §5

[7] = test system: barnyardgrass (Echinochloa crus-galli); assay: Test C flooded paddy test: barnyardgrass; conditions: scale 0 to 100 (0 no effect, 100 complete control); for pest or weed control at 125 g/ha / pest or weed control at 250 g/ha / pest or weed control at 31 g/ha / pest or weed control at 62 g/ha: Echinochloa crus-galli, read-out: Plant response rating, Barnyardgrass
Summary of the method: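 Greenhouse plants treated at the 2-leaf stage by dosing the flood water (3 cm depth, maintained) were compared with controls after 13 to 15 days and rated 0 to 100, where 100 means complete control; a dash marks no test result.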

[8] = 31 g ai/ha, scale 0 to 100 (0 no effect, 100 complete control)
[9] = 62 g ai/ha, scale 0 to 100 (0 no effect, 100 complete control)
[10] = 125 g ai/ha, scale 0 to 100, 0 no effect, 100 complete control
[11] = 250 g ai/ha, scale 0 to 100 (0 no effect, 100 complete control)
[12] = Flood (flooded paddy test), 125 g ai/ha, visual rating after 13 to 15 days
[13] = Flood (flooded paddy test), 250 g ai/ha, visual rating after 13 to 15 days
[14] = 16 g ai/ha, scale 0 to 100, 0 no effect, 100 complete control

Compound | Plant response rating, Bromegrass, Downy [1, 8] | Plant response rating, Bromegrass, Downy [1, 9] | Plant response rating, Bromegrass, Downy [1, 10] | Plant response rating, Surinam Grass [2, 8] | Plant response rating, Surinam Grass [2, 9] | Plant response rating, Surinam Grass [2, 10] | Plant response rating, Barley [3, 8] | Plant response rating, Barley [3, 9] | Plant response rating, Barley [3, 10] | Plant response rating, Deadnettle [4, 8] | Plant response rating, Deadnettle [4, 9] | Plant response rating, Deadnettle [4, 10] | pest or weed control at 125 g/ha [7, 12] [%] | pest or weed control at 250 g/ha [7, 13] [%] | pest or weed control at 31 g/ha ([7]; Flood, 31 g ai/ha) [%] | further results
Cc1nn(-c2ccnc(C(F)(F)F)c2)nc1Cc1ccnc(C(F)(F)F)c1 [Compound 137] | 10 | 30 | 60 | 40 | 45 | 45 | 10 | 10 | 30 | 80 | 95 | 95 | – | – | – | Plant response rating, Bromegrass, Downy ([1]; 250 g ai/ha, scale 0 to 100): 85; Plant response rating, Surinam Grass ([2]; 250 g ai/ha, scale 0 to 100): 45; Plant response rating, Barley ([3]; 250 g ai/ha, scale 0 to 100): 35; Plant response rating, Deadnettle ([4]; 250 g ai/ha, scale 0 to 100): 95; Plant response rating: Ryegrass, Italian [5, 8]: 10; Plant response rating: Ryegrass, Italian [5, 9]: 25; Plant response rating: Ryegrass, Italian [5, 10]: 35; Plant response rating: Ryegrass, Italian [5, 11]: 40; Plant response rating, Ryegrass, Italian ([5]; 16 g ai/ha, scale 0 to 100): 0; Plant response rating: Chamomile [6, 8]: 10; Plant response rating: Chamomile [6, 9]: 15; Plant response rating: Chamomile [6, 10]: 20; Plant response rating: Chamomile [6, 11]: 40; Plant response rating, Chamomile ([6]; 16 g ai/ha, scale 0 to 100): 0
CCc1nn(-c2ccc(C(F)(F)F)cc2)nc1Oc1cccc(OC(F)(F)F)c1 [Compound 125, 4-ethyl-5-[3-(trifluoromethoxy)phenoxy]-2-[4-(trifluoromethyl)phenyl]-2H-1,2,3-triazole] | – | – | – | – | – | – | – | – | – | – | – | – | 0 | 10 | 0 | pest or weed control at 62 g/ha ([7]; Flood, 62 g ai/ha): 0%
Cc1nn(-c2ccc(C(F)(F)F)cc2)nc1Cc1cccc(C(F)(F)F)c1 [Compound 124] | 0 | 0 | 0 | 10 | 15 | 20 | 15 | 30 | 30 | 80 | 98 | 98 | – | – | – | Plant response rating, Bromegrass, Downy [1, 14]: 0; Plant response rating, Surinam Grass [2, 14]: 5; Plant response rating, Barley [3, 14]: 5; Plant response rating, Deadnettle [4, 14]: 75; Plant response rating, Barnyardgrass [7, 12]: 50; Plant response rating, Barnyardgrass [7, 13]: 50; Plant response rating, Barnyardgrass ([7]; Flood, 31 g ai/ha): 20; Plant response rating, Barnyardgrass ([7]; Flood, 62 g ai/ha): 40
COc1nn(-c2ccc(C(F)(F)F)cc2)nc1Cn1ccc(C(F)(F)F)n1 [Compound 17, 4-methoxy-2-[4-(trifluoromethyl)phenyl]-5-[[3-(trifluoromethyl)-1H-pyrazol-1-yl]methyl]-2H-1,2,3-triazole] | – | – | – | – | – | – | – | – | – | – | – | – | 40 | 45 | 0 | pest or weed control at 62 g/ha ([7]; Flood (flooded paddy test), 62 g ai/ha, visual rating after 13 to 15 days): 20%
